Experimental data: patent US5663162A, “Cephem derivatives” (priority 1993, dated 1997)
In brackets after ≈: the same amount, converted by molar mass.

Experiments:
S. Aureus 126 = assay: Antibacterial activity test, MIC by two-fold dilution method; format: cell-based, Staphylococcus aureus (methicillin-resistant, MRSA); details: Staphylococcus aureus, MRSA, read-out: Minimum Inhibition Concentration
Protocol: (§1) The measurement was carried out in the following manner: 10^6 CFU/ml of a bacterium to be tested was inoculated on a Medium N for disc susceptibility test (manufactured by Nissui Pharmaceutical Co., Ltd.), and cultivated at 35° C. for 18 to 20 hours.

S. Aureus 133 = assay: as above; format: cell-based, Staphylococcus aureus (methicillin-resistant, MRSA); details: Staphylococcus aureus, MRSA, read-out: Minimum Inhibition Concentration
Protocol: as §1

ICR mice = assay: Acute toxicity test in ICR mice; format: in vivo
Protocol: (§2) 0.5 ml of a pharmaceutical solution prepared by dissolving a compound of the present invention in a physiological saline solution for injection (80 mg/ml) was injected to the caudal veins of ICR mice (4 weeks old, male, body weight: approx. 20 g). Two weeks after the administration, the mice were observed whether they were dead or not. […] Therefore, the LD50 of this compound is >2 g/kg (>40 mg/mouse).

[1] = Acute toxicity test in ICR mice; format: in vivo; details: mouse, in vivo, iv
Protocol: as §2

P. aeruginosa GN10362 = assay: Antibacterial activity test, MIC by two-fold dilution method; format: cell-based; details: Pseudomonas aeruginosa, GN10362, read-out: Minimum Inhibition Concentration
Protocol: as §1

C. freundii GN346/16 = assay: as above; format: cell-based; details: Citrobacter freundii; C. freundii GN346/16; 10^6 CFU/ml, 35° C., 18 to 20 hours; read-out: Minimum Inhibition Concentration
Protocol: as §1

P. aeruginosa E-2 = assay: as above; format: cell-based; details: Pseudomonas aeruginosa, E2, read-out: Minimum Inhibition Concentration
Protocol: as §1

S. marcescens No. 1 = assay: as above; format: cell-based; details: Serratia marcescens; S. marcescens No. 1; 10^6 CFU/ml, 35° C., 18 to 20 hours; read-out: Minimum Inhibition Concentration
Protocol: as §1

M. morganii 1510/S-1 = assay: as above; format: cell-based; details: Morganella morganii, 1510/S1; M. morganii 1510/S-1; 10^6 CFU/ml, 35° C., 18 to 20 hours; read-out: Minimum Inhibition Concentration
Protocol: as §1

S. Aureus 209P JC-1 = assay: as above; format: cell-based; details: Staphylococcus aureus; S. Aureus 209P JC-1; 10^6 CFU/ml, 35° C., 18 to 20 hours; read-out: Minimum Inhibition Concentration
Protocol: as §1

P. vulgaris GN76 = assay: as above; format: cell-based; details: Proteus vulgaris, GN76, read-out: Minimum Inhibition Concentration
Protocol: as §1

E. cloacae G-0008 = assay: as above; format: cell-based; details: Enterobacter cloacae, G0008; E. cloacae G-0008; 10^6 CFU/ml, 35° C., 18 to 20 hours; read-out: Minimum Inhibition Concentration
Protocol: as §1

S. epidermidis ATCC14990 = assay: as above; format: cell-based; details: Staphylococcus epidermidis; S. epidermidis ATCC14990; 10^6 CFU/ml, 35° C., 18 to 20 hours; read-out: Minimum Inhibition Concentration
Protocol: as §1

K. pneumoniae PC1602 = assay: as above; format: cell-based; details: Klebsiella pneumoniae; K. pneumoniae PC1602; 10^6 CFU/ml, 35° C., 18 to 20 hours; read-out: Minimum Inhibition Concentration
Protocol: as §1

E. coli NIHJ JC-2 = assay: as above; format: cell-based; details: Escherichia coli, NIHJJC2; E. coli NIHJ JC-2; 10^6 CFU/ml, 35° C., 18 to 20 hours; read-out: Minimum Inhibition Concentration
Protocol: as §1

CCO/N=C(\C(=O)N[C@@H]1C(=O)N2C(C(=O)[O-])=C(C[n+]3cc4sccn4c3CNC=O)CS[C@H]12)c1nsc(N)n1 [Example 49, (6R,7R)-7-[(Z)-2-(5-Amino-1,2,4-thiadiazol-3-yl)-2-ethoxyiminoacetamide]-3-[5-(formylamino)methylimidazo[5,1-b]thiazolium-6-yl]methyl-3-cephem-4-carboxylate]
MIC (S. Aureus 126): 6.25 µg/mL (≈ 10.6 µM) | MIC (S. Aureus 133): 6.25 µg/mL (≈ 10.6 µM) | survival two weeks after administration (ICR mice; ICR mice, 0.5 ml of 80 mg/ml solution, caudal vein, 3 cases): all (3 cases) alive | LD50 (ICR mice; mouse, in vivo): > 40 mg/mouse | LD50 at 336 h [1]: > 2000 mg/kg | MIC (P. aeruginosa GN10362): 1.56 µg/mL (≈ 2.64 µM) | MIC (C. freundii GN346/16): 0.05 µg/mL (≈ 0.0845 µM) | MIC (P. aeruginosa E-2): 1.56 µg/mL (≈ 2.64 µM) | MIC (S. marcescens No. 1): 0.1 µg/mL (≈ 0.169 µM) | MIC (M. morganii 1510/S-1): ≤ 0.025 µg/mL | MIC (S. Aureus 209P JC-1): 0.78 µg/mL (≈ 1.32 µM) | MIC (P. vulgaris GN76): 0.39 µg/mL (≈ 0.659 µM) | MIC (E. cloacae G-0008): 0.05 µg/mL (≈ 0.0845 µM) | MIC (S. epidermidis ATCC14990): 0.78 µg/mL (≈ 1.32 µM) | MIC (K. pneumoniae PC1602): 0.05 µg/mL (≈ 0.0845 µM) | MIC (E. coli NIHJ JC-2): 0.05 µg/mL (≈ 0.0845 µM)
